Test results taken from PubChem BioAssay AID624376 (Broad Institute, 2012).
Inconclusive results are not listed.

system: LMP1-induced NF-kappaB luciferase reporter cells, luminescence; experiment: inhibitors of EBV LMP1 NF-kappaB signaling – cell-based, luciferase reporter, luminescence, dry powder, set 2, dose response (AID 624376)

Compound | AC50 [µM]
O=C(C[C@H]1C[C@H]2c3cc(NC(=O)c4ccc5c(c4)OCO5)ccc3O[C@H]2[C@H](CO)O1)NCc1ccc(Oc2ccccc2)cc1 | 18.7
O=C(C[C@@H]1C[C@H]2c3cc(NC(=O)c4ccc5c(c4)OCO5)ccc3O[C@H]2[C@H](CO)O1)NC1CCCCC1 | 16.8
O=C(C[C@@H]1CC[C@@H]2[C@H](COC[C@H](O)CN2Cc2ccc3c(c2)OCO3)O1)Nc1ccc(-c2ccccc2)cc1 | 7.97
O=C(Nc1ccc(C(F)(F)F)cc1)Nc1ccc2c(c1)[C@H]1C[C@H](CC(=O)N3CCc4ccccc4C3)O[C@H](CO)[C@H]1O2 | 24.2
Cc1cc(C(=O)Nc2ccc3c(c2)C(=O)N(C)[C@@H]2CC[C@H](CC(=O)NCc4ccc(-c5ccccc5)cc4)O[C@H]2CO3)no1 | 1.6
N#C[C@H]1[C@H](c2ccc(C#Cc3ccccc3F)cc2)[C@H](CO)N1C(=O)c1cccnc1 | 12.6
O=C(C[C@H]1C[C@@H]2c3cc(NS(=O)(=O)c4ccc(F)cc4)ccc3O[C@@H]2[C@@H](CO)O1)NCc1ccc(Oc2ccccc2)cc1 | 13.5
CC(C)(C)[S@](=O)N1Cc2cc(C(=O)NCC(F)(F)F)nc(-c3cccc(-c4cccc(F)c4)c3)c2[C@@H]1CCO | 11.9
O=C(C[C@@H]1CC[C@H]2[C@@H](COC[C@H](O)CN2Cc2ccc(Oc3ccccc3)cc2)O1)N1CCc2ccccc2C1 | 19.7
